The record followed here is patent publication US5051417A, “Indolythiadiazines for treating heart failure” (Les Laboratoires Beecham S.A., priority 1988, dated 1991).

One series concerns canine cardiac PDE, CAM. The series is described as follows: Canine cardiac PDE inhibition, CAM. Format: biochemical. The settings on record: n in table.
Series [1] concerns canine cardiac myofibrillar Ca++-dependent Mg++-ATPase. The series is described as follows: Measurement of myofibrillar Ca++-dependent Mg++-ATPase activity on canine cardiac myofibrils. Format: biochemical. Conditions: pH 7.0, 21° C.; for max (percent change of maximal ATPase activity): pCa=5.47.
The subject of another series is anaesthetised dog. Put plainly: Cardiotonic activity in the dog (haemodynamics). The settings on record: i.v. Format: in vivo, dog (male Beagle).
A further series addresses T1, canine cardiac PDE, CGI (Canis lupus familiaris, UniProt A0A8I3NYE0).
T1 construct: CANINE CARDIAC PDE; from tissue; host or cells: dog heart
T1 sequence (A0A8I3NYE0 1-1135): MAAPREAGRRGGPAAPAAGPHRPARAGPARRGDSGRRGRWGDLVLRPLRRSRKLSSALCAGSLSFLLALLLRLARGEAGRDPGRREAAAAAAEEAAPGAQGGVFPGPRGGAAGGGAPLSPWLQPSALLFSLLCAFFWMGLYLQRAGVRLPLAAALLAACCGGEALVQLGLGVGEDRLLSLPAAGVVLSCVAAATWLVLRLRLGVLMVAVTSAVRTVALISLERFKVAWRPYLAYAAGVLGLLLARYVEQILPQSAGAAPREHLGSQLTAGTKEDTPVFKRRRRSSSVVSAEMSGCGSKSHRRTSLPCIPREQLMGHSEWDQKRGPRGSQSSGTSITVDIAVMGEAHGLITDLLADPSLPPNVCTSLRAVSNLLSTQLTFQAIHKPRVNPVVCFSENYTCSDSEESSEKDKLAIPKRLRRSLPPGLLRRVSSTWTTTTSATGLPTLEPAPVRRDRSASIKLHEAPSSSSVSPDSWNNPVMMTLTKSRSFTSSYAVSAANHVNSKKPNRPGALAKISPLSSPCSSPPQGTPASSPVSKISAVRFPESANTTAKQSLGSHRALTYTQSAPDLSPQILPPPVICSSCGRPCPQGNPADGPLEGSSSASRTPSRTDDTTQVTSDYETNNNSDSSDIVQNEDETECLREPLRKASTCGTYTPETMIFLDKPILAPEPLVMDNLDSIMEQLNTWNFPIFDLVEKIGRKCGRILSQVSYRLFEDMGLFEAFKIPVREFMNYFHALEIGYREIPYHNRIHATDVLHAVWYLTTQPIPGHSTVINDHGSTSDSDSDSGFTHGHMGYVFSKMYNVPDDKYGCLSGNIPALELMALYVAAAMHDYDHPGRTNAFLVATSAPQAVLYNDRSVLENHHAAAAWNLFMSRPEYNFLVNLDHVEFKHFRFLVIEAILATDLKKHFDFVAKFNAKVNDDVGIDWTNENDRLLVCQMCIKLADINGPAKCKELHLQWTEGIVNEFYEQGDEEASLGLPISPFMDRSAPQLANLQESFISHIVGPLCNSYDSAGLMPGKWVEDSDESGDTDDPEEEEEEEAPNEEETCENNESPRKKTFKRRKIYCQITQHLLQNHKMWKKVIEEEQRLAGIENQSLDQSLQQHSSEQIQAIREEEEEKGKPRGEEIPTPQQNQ
Put plainly: Canine cardiac PDE inhibition, CGI. Format: biochemical. The settings on record: n in table.

The nature of series [2]: Stability in presence of air. Format: physicochemical. Conditions: free base. The protocol:
However, the compounds can usually be stabilised by converting them to a salt form.
1 g (2.8mmol) 1,3-Dihydro-5-(3,6-dihydro-6-methyl-2-oxo-2H -1,3,4-thiadiazin-5-yl)-3-phenylimino-2H-indol-2-one (E6) and 1.87 g (28mmol) powdered zinc in 20 ml glacial acetic acid were refluxed for 10 minutes. The excess of zinc was removed by filtration and washed with acetic acid. 100 ml water were added to the filtrate and the precipitate was filtered, washed with water until neutral, and dried under vacuum. […] The crystals of the free base were suspended in a 1/5 mixture of methanol/ethyl ether (30 ml) and about 5 ml of a saturated solution of HCl gas in ethyl ether were added. After 1 hour of stirring, the white precipitate was filtered off, washed with ether and dried.

Broadly, the IC50 is the concentration at which inhibition is half-maximal. Take `COC(=S)NN=C1C(=O)Nc2ccc(C3=NNC(=O)SC3C)cc21` (stereo not drawn) [Example 3, O-Methyl 2-[2,3-dihydro-5-(3,6-dihydro-6-methyl-2-oxo-2H -1,3,4-thiadiazin-5-yl)-2-oxo-1H-indol-3-ylidene]-hydrazine carbothioate]: the IC50 with canine cardiac PDE, CAM was above 300 µM. In addition, in series [1] (30 μM), the “max (percent change of maximal ATPase activity)” value is on record as “+3 ± 3%” and the “pCa (shift of the pCa giving 50% of the maximal control ATPase activity; Ca++ sensitivity)” value is reported as “+0.33 ± 0.05”. Moreover, in the series with anaesthetised dog (0.1 mg/kg), the AoBF is given as -30 ± 12%, the AoBP is -14 ± 7%, the H.R. entry was “+28 ± 6%” and the “dP/dt Max” value is on record as “+17 ± 6%”. Besides, in the series with anaesthetised dog (0.3 mg/kg), the AoBF is recorded as -63 ± 8%, the AoBP is given as -29 ± 6%, the H.R. entry is listed as “+54 ± 11%” and the “dP/dt Max” value is “+70 ± 5%”. Further, in the series with anaesthetised dog (1.0 mg/kg), the AoBF was -50 ± 12%, the AoBP is -30 ± 1%, the H.R. entry is given as “+93 ± 7%” and the “dP/dt Max” value was “+126 ± 9%”. For the same molecule, on canine cardiac PDE, CGI, the IC50 was 0.27 µM.
In the case of `CON=C1C(=O)Nc2ccc(C3=NNC(=O)SC3C)cc21` (stereo not drawn) [Example 2, 1,3-Dihydro-5-(3,6-dihydro-6-methyl-2-oxo-2H,1,3,4 thiadiazin-5-yl)-3-methoxyimino-2H-indol-2-one], 6.9 µM corresponded to half-maximal inhibition in the series with canine cardiac PDE, CAM (IC50). Besides, in series [1] (10 μM), the “max (percent change of maximal ATPase activity)” value was “+5 ± 2%” and the “pCa (shift of the pCa giving 50% of the maximal control ATPase activity; Ca++ sensitivity)” value is 0.24 ± 0.01. Besides, in series [1] (30 μM), the “max (percent change of maximal ATPase activity)” value was “+13 ± 4%” and the “pCa (shift of the pCa giving 50% of the maximal control ATPase activity; Ca++ sensitivity)” value was 0.60 ± 0.11. Besides, in the series with anaesthetised dog (0.1 mg/kg), the AoBF result was “+8 ± 2%”, the AoBP result is on record as “+4 ± 2%”, the H.R. result is “+13 ± 8%” and the “dP/dt Max” value is recorded as “+31 ± 9%”. In the series with anaesthetised dog (0.3 mg/kg), the AoBF result is given as “+16 ± 1%”, the AoBP is listed as -9 ± 1%, the H.R. result is on record as “+26 ± 10%” and the “dP/dt Max” value was “+54 ± 20%”. Also, in the series on anaesthetised dog (1.0 mg/kg), the AoBF result is reported as “+33 ± 5%”, the AoBP was -20 ± 5%, the H.R. entry is “+55 ± 21%” and the “dP/dt Max” value is “+128 ± 56%”. At canine cardiac PDE, CGI, this molecule had an IC50 of 1.3 µM.
`CC1SC(=O)NN=C1c1ccc2c(c1)C(Nc1ccccc1)C(=O)N2.Cl` (stereo not drawn) [Example 8, 1,3-Dihydro-5-(3,6-dihydro-6-methyl-2-oxo-2H-1,3,4-thiadiazin-5-yl)-3-phenylamino-2H-indol-2-one, hydrochloride] displayed an IC50 in the series on canine cardiac PDE, CAM of 19 µM. In series [1] (30 μM), the “max (percent change of maximal ATPase activity)” value turned out to be 2 ± 3% and the “pCa (shift of the pCa giving 50% of the maximal control ATPase activity; Ca++ sensitivity)” value was “+0.87 ± 0.01”. In addition, the “stability in presence of air” value in series [2] is reported as “reverts to the starting material in presence of air”. Further, the IC50 against canine cardiac PDE, CGI came to 1.2 µM.
In the case of `CC1SC(=O)NN=C1c1ccc2c(c1)C(=NO)C(=O)N2` (stereo not drawn) [Example 1, 1,3-Dihydro-5-(3,6-dihydro-6-methyl-2-oxo-2H-1,3,4-thiadiazin-5-yl)-3-hydroxyimino-2H-indol-2-one], the IC50 with canine cardiac PDE, CAM was determined as 7.9 µM; on canine cardiac PDE, CGI, 0.66 µM. The “max (percent change of maximal ATPase activity)” value in series [1] (10 μM) is “+5 ± 0%”; in series [1] (30 μM) it was “+1 ± 2%”. Further, the entries for the “pCa (shift of the pCa giving 50% of the maximal control ATPase activity; Ca++ sensitivity)” value in series [1] (10 μM) and in series [1] (30 μM) were 0.19 ± 0.09 and 0.25 ± 0.07, respectively. Also, the AoBF result in the series on anaesthetised dog (0.1 mg/kg) was “+8%”; in the series with anaesthetised dog (0.3 mg/kg), “+16%”; in the series on anaesthetised dog (1.0 mg/kg), “+33%”. Besides, the AoBP entry with anaesthetised dog (0.1 mg/kg) was “+4%”; with anaesthetised dog (0.3 mg/kg), -9%; in the series with anaesthetised dog (1.0 mg/kg) it was -20%. In addition, the figures for the H.R. entry in the series with anaesthetised dog (0.1 mg/kg), in the series with anaesthetised dog (0.3 mg/kg) and with anaesthetised dog (1.0 mg/kg) were “+13%”, “+30%” and “+55%”, respectively. For the same molecule, the “dP/dt Max” value with anaesthetised dog (0.1 mg/kg) is recorded as “+31%”; in the series on anaesthetised dog (0.3 mg/kg) it was “+54%”; in the series on anaesthetised dog (1.0 mg/kg) it was 128%.
